Data published in ChEMBL document CHEMBL3991601, “The target landscape of clinical kinase drugs” (Science, 2017).
Calls of active or inactive are those of the source.

biological target: T1, General transcription and DNA repair factor IIH helicase subunit XPD (Homo sapiens, UniProt P18074); details: read-out: Kd apparent; k-562, colo 205, sk-n-be(2) and mv-4-11
T1 sequence (P18074 whole entry): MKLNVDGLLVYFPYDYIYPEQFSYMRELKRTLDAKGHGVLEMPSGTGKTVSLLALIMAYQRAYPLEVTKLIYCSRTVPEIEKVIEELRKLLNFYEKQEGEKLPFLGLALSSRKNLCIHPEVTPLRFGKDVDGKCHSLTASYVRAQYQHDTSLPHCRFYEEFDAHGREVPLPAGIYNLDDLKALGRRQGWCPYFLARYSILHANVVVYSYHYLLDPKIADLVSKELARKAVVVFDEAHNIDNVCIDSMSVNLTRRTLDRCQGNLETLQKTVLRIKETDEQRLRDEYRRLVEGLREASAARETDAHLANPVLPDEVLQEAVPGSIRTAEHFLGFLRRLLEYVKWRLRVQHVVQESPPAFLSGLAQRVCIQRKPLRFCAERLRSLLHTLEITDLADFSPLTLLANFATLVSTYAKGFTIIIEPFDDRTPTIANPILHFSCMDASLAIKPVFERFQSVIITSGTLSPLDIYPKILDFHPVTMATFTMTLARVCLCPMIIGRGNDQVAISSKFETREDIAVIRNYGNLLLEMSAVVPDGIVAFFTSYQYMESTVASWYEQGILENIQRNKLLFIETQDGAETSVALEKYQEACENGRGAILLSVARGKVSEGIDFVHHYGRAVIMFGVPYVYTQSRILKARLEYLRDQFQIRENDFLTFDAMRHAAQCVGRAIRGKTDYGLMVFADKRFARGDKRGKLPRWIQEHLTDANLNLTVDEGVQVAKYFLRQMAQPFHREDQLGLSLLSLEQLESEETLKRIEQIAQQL
Note: in the data inactive means no Kd found up to 30 µM.

SMILES | Kd
CN1CC[C@@H](c2c(O)cc(O)c3c(=O)cc(-c4ccccc4Cl)oc23)[C@@H]1CO | > 30 µM (inactive)
Cn1ncc(Cl)c1-c1cc(C(=O)N[C@H](CN)Cc2cccc(F)c2)sc1Cl [AFURESERTIB] | > 30 µM (inactive)
COc1cc(N2CCC(N3CCN(C)CC3)CC2)ccc1Nc1ncnc(Nc2ccccc2S(=O)(=O)C(C)C)n1 [ASP-3026] | > 30 µM (inactive)
C[C@@H](Nc1cc(F)cc(F)c1)c1cc(C(=O)N(C)C)cc2c(=O)cc(N3CCOCC3)oc12 [AZD-8186] | > 30 µM (inactive)
Cc1nc(N)sc1-c1ccnc(Nc2ccc(N3CCOCC3)cc2)n1 [CYC-116] | > 30 µM (inactive)

biological target: Myosin light chain kinase, smooth muscle (Homo sapiens, UniProt Q15746); details: not given
Sequence (Q15746 whole entry): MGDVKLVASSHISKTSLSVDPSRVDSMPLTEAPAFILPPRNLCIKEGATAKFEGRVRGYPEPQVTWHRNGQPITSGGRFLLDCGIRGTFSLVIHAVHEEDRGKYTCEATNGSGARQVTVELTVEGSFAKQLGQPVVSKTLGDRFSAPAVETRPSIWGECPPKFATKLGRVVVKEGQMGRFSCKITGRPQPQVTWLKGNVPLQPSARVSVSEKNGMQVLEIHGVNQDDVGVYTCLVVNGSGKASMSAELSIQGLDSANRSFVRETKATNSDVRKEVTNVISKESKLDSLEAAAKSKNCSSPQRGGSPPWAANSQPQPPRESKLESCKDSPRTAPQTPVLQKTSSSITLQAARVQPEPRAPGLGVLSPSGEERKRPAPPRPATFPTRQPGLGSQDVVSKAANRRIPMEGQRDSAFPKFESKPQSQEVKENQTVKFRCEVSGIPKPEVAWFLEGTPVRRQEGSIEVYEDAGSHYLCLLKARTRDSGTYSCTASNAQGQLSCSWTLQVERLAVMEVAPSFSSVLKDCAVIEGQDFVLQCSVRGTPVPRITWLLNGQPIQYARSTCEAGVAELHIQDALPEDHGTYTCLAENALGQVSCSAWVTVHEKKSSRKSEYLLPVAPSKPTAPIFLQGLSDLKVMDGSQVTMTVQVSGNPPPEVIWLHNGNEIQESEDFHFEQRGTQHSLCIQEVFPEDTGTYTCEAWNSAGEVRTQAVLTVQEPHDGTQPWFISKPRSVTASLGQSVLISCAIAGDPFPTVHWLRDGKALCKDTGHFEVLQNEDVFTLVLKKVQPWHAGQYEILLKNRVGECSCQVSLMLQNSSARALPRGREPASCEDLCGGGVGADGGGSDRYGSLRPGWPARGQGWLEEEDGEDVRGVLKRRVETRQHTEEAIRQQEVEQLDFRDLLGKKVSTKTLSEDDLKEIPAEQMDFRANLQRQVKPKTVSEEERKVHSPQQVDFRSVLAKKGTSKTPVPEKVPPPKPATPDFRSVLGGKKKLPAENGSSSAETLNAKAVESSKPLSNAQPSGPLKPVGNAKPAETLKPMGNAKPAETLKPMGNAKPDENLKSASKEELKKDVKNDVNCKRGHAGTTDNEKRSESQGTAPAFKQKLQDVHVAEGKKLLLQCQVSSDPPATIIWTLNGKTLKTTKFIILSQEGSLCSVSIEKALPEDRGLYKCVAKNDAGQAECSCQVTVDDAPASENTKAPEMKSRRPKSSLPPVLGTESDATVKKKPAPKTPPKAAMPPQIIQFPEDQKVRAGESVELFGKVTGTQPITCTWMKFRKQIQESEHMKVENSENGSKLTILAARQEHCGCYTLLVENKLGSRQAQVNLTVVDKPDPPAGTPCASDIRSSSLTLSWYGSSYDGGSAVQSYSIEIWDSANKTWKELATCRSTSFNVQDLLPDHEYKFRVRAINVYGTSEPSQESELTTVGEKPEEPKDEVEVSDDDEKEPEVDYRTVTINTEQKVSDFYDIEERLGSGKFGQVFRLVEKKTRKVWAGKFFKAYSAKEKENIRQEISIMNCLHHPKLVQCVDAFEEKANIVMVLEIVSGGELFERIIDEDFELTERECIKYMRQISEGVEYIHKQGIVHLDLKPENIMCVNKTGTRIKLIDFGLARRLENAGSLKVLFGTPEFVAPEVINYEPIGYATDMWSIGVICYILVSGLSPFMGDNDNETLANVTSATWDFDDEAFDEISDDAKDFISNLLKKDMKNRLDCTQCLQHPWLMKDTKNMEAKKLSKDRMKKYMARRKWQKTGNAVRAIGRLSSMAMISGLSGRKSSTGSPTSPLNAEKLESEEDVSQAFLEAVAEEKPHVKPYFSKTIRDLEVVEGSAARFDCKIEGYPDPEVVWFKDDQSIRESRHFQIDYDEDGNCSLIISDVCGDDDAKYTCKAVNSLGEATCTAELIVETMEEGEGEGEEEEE

SMILES | Kd
CN1CC[C@@H](c2c(O)cc(O)c3c(=O)cc(-c4ccccc4Cl)oc23)[C@@H]1CO | > 30 µM (inactive)
Cn1ncc(Cl)c1-c1cc(C(=O)N[C@H](CN)Cc2cccc(F)c2)sc1Cl [AFURESERTIB] | > 30 µM (inactive)
COc1cc(N2CCC(N3CCN(C)CC3)CC2)ccc1Nc1ncnc(Nc2ccccc2S(=O)(=O)C(C)C)n1 [ASP-3026] | > 30 µM (inactive)
C[C@@H](Nc1cc(F)cc(F)c1)c1cc(C(=O)N(C)C)cc2c(=O)cc(N3CCOCC3)oc12 [AZD-8186] | > 30 µM (inactive)

biological target: T2, Acyl-CoA dehydrogenase family member 11 (Homo sapiens, UniProt Q709F0); details: not given
T2 sequence (Q709F0 whole entry): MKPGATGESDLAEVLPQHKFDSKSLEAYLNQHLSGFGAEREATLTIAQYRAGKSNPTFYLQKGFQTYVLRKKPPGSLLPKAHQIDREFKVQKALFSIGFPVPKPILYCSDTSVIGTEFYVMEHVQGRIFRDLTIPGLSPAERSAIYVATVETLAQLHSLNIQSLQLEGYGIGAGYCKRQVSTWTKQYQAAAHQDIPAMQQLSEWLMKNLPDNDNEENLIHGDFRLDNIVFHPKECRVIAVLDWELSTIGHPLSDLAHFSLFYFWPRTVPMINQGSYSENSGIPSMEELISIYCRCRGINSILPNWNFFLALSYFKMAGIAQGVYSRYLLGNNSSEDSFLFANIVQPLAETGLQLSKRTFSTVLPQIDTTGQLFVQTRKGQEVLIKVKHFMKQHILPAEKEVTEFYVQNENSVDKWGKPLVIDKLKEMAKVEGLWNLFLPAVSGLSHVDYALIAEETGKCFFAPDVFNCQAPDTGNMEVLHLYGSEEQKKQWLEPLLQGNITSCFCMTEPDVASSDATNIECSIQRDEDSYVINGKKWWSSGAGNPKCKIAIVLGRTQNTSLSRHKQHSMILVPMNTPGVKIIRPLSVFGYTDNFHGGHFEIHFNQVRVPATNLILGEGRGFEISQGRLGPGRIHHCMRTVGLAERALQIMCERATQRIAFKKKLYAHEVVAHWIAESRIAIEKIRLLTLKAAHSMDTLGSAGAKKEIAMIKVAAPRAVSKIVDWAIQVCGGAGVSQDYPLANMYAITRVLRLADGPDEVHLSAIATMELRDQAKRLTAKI

SMILES | Kd
C[C@@H](Nc1cc(F)cc(F)c1)c1cc(C(=O)N(C)C)cc2c(=O)cc(N3CCOCC3)oc12 [AZD-8186] | > 30 µM (inactive)
Cc1nc(N)sc1-c1ccnc(Nc2ccc(N3CCOCC3)cc2)n1 [CYC-116] | > 30 µM (inactive)

biological target: Mitogen-activated protein kinase 1 (Homo sapiens, UniProt P28482); details: not given

SMILES | Kd
CN1CC[C@@H](c2c(O)cc(O)c3c(=O)cc(-c4ccccc4Cl)oc23)[C@@H]1CO | > 30 µM (inactive)
Cn1ncc(Cl)c1-c1cc(C(=O)N[C@H](CN)Cc2cccc(F)c2)sc1Cl [AFURESERTIB] | > 30 µM (inactive)
COc1cc(N2CCC(N3CCN(C)CC3)CC2)ccc1Nc1ncnc(Nc2ccccc2S(=O)(=O)C(C)C)n1 [ASP-3026] | > 30 µM (inactive)
C[C@@H](Nc1cc(F)cc(F)c1)c1cc(C(=O)N(C)C)cc2c(=O)cc(N3CCOCC3)oc12 [AZD-8186] | > 30 µM (inactive)

biological target: Bone morphogenetic protein receptor type-1B (Homo sapiens, UniProt O00238); details: not given

SMILES | Kd
CN1CC[C@@H](c2c(O)cc(O)c3c(=O)cc(-c4ccccc4Cl)oc23)[C@@H]1CO | > 30 µM (inactive)
Cn1ncc(Cl)c1-c1cc(C(=O)N[C@H](CN)Cc2cccc(F)c2)sc1Cl [AFURESERTIB] | > 30 µM (inactive)
COc1cc(N2CCC(N3CCN(C)CC3)CC2)ccc1Nc1ncnc(Nc2ccccc2S(=O)(=O)C(C)C)n1 [ASP-3026] | 1.82 µM (active)
C[C@@H](Nc1cc(F)cc(F)c1)c1cc(C(=O)N(C)C)cc2c(=O)cc(N3CCOCC3)oc12 [AZD-8186] | > 30 µM (inactive)
Cc1nc(N)sc1-c1ccnc(Nc2ccc(N3CCOCC3)cc2)n1 [CYC-116] | > 30 µM (inactive)

biological target: RAC-gamma serine/threonine-protein kinase (Homo sapiens, UniProt Q9Y243); details: not given

SMILES | Kd
CN1CC[C@@H](c2c(O)cc(O)c3c(=O)cc(-c4ccccc4Cl)oc23)[C@@H]1CO | 5.92 µM
COc1cc(N2CCC(N3CCN(C)CC3)CC2)ccc1Nc1ncnc(Nc2ccccc2S(=O)(=O)C(C)C)n1 [ASP-3026] | > 30 µM (inactive)

biological target: T3, ATP-dependent RNA helicase DDX1 (Homo sapiens, UniProt Q92499); details: not given
T3 sequence (Q92499 whole entry): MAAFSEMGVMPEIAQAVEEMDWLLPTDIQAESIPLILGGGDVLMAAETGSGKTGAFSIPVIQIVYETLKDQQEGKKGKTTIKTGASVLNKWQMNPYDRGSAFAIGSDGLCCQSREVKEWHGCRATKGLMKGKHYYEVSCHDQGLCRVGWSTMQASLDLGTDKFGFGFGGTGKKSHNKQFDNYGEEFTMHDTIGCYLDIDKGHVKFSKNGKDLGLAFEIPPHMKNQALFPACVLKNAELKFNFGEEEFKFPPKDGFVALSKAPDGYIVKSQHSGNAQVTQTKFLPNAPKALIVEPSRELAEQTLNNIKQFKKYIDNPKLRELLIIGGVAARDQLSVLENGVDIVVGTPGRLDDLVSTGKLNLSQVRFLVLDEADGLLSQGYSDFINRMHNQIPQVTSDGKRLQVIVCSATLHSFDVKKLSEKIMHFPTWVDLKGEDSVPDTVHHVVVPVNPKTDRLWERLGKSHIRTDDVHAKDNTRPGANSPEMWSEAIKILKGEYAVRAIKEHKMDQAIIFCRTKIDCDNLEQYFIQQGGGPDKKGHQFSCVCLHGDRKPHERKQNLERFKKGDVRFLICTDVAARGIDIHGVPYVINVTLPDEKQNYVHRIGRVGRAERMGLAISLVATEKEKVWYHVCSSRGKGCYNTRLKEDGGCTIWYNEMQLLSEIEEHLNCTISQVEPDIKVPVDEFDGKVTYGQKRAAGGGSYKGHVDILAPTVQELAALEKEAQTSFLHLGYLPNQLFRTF

SMILES | Kd
CN1CC[C@@H](c2c(O)cc(O)c3c(=O)cc(-c4ccccc4Cl)oc23)[C@@H]1CO | > 30 µM (inactive)
Cn1ncc(Cl)c1-c1cc(C(=O)N[C@H](CN)Cc2cccc(F)c2)sc1Cl [AFURESERTIB] | > 30 µM (inactive)
COc1cc(N2CCC(N3CCN(C)CC3)CC2)ccc1Nc1ncnc(Nc2ccccc2S(=O)(=O)C(C)C)n1 [ASP-3026] | > 30 µM (inactive)
C[C@@H](Nc1cc(F)cc(F)c1)c1cc(C(=O)N(C)C)cc2c(=O)cc(N3CCOCC3)oc12 [AZD-8186] | > 30 µM (inactive)
Cc1nc(N)sc1-c1ccnc(Nc2ccc(N3CCOCC3)cc2)n1 [CYC-116] | > 30 µM (inactive)

biological target: Mitogen-activated protein kinase kinase kinase 20 (Homo sapiens, UniProt Q9NYL2); details: not given
Sequence (Q9NYL2 whole entry): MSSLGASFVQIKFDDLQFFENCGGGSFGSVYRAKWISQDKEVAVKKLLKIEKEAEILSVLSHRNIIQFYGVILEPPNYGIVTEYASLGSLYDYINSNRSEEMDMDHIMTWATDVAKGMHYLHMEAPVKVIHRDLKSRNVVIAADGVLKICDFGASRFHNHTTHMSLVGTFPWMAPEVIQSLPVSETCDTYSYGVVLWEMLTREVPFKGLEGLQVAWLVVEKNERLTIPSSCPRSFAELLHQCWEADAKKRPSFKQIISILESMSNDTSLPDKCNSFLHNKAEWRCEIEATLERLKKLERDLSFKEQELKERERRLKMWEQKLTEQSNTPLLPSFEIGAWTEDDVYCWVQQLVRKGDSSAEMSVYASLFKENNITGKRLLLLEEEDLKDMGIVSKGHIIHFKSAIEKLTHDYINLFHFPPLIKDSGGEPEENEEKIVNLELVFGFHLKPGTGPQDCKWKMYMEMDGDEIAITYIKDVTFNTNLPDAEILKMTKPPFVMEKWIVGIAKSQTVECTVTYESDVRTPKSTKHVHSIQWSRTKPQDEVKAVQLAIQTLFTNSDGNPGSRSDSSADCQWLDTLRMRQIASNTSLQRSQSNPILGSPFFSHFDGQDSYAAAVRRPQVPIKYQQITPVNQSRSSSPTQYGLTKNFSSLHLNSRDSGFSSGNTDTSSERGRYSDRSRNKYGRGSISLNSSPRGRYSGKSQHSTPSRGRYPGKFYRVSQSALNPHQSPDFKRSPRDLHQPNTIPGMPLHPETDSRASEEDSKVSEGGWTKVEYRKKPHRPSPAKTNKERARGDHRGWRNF

SMILES | Kd
CN1CC[C@@H](c2c(O)cc(O)c3c(=O)cc(-c4ccccc4Cl)oc23)[C@@H]1CO | > 30 µM (inactive)
Cn1ncc(Cl)c1-c1cc(C(=O)N[C@H](CN)Cc2cccc(F)c2)sc1Cl [AFURESERTIB] | > 30 µM (inactive)
COc1cc(N2CCC(N3CCN(C)CC3)CC2)ccc1Nc1ncnc(Nc2ccccc2S(=O)(=O)C(C)C)n1 [ASP-3026] | > 30 µM (inactive)
C[C@@H](Nc1cc(F)cc(F)c1)c1cc(C(=O)N(C)C)cc2c(=O)cc(N3CCOCC3)oc12 [AZD-8186] | > 30 µM (inactive)

biological target: U5 small nuclear ribonucleoprotein 200 kDa helicase (Homo sapiens, UniProt O75643); details: not given
Sequence (O75643 whole entry): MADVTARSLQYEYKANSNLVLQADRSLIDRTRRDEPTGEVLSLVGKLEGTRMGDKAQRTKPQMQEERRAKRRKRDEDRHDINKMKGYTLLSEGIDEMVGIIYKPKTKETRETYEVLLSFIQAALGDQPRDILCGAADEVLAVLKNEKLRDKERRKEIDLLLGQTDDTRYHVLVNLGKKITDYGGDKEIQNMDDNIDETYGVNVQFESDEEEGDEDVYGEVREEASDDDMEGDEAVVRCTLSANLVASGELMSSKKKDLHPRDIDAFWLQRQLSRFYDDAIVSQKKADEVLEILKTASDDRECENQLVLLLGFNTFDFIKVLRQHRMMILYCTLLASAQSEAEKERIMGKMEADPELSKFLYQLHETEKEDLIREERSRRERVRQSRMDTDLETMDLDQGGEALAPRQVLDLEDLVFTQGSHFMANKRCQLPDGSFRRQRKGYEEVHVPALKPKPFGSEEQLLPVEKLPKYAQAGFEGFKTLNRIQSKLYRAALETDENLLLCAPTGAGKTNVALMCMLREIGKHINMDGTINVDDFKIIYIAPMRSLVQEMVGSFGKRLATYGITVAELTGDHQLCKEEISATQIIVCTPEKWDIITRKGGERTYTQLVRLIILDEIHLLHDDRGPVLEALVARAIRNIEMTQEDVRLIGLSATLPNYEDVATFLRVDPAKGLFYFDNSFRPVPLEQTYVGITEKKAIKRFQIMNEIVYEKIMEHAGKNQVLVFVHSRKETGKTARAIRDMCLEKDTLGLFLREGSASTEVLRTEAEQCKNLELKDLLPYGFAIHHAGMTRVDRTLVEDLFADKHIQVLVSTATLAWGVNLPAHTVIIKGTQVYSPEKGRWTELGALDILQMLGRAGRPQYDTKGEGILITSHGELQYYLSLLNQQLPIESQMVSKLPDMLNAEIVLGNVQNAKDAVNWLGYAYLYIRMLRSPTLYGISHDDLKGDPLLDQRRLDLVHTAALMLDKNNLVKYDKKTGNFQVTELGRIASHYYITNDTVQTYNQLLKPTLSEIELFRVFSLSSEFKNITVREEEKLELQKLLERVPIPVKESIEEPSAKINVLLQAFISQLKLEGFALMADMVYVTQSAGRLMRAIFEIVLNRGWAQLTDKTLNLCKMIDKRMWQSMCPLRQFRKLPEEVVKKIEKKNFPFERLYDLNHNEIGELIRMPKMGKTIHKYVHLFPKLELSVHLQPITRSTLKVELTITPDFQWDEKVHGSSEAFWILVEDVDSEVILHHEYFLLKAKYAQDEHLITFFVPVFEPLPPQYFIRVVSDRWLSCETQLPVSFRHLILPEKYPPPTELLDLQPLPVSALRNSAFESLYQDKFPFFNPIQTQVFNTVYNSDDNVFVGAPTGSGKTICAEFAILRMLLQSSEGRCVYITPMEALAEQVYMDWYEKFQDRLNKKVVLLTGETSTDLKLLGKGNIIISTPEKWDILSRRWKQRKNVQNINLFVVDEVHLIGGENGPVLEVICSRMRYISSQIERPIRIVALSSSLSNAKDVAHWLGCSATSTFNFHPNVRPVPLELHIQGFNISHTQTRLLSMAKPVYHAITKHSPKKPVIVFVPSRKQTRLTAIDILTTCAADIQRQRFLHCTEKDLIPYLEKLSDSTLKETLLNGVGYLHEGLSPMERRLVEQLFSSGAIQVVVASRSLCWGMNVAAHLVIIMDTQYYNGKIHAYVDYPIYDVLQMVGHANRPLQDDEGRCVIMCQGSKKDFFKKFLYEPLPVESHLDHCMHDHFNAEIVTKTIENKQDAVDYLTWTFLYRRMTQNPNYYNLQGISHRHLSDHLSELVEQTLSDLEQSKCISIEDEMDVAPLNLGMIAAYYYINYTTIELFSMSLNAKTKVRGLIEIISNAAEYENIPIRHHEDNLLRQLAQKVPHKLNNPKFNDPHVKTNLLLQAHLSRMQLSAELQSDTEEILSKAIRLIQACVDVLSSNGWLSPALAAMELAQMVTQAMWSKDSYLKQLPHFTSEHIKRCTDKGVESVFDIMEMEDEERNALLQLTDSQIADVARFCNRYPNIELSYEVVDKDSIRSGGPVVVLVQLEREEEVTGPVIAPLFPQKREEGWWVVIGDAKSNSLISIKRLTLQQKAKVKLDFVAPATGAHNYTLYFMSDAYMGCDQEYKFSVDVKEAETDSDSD

SMILES | Kd
CN1CC[C@@H](c2c(O)cc(O)c3c(=O)cc(-c4ccccc4Cl)oc23)[C@@H]1CO | > 30 µM (inactive)
COc1cc(N2CCC(N3CCN(C)CC3)CC2)ccc1Nc1ncnc(Nc2ccccc2S(=O)(=O)C(C)C)n1 [ASP-3026] | > 30 µM (inactive)
C[C@@H](Nc1cc(F)cc(F)c1)c1cc(C(=O)N(C)C)cc2c(=O)cc(N3CCOCC3)oc12 [AZD-8186] | > 30 µM (inactive)
Cc1nc(N)sc1-c1ccnc(Nc2ccc(N3CCOCC3)cc2)n1 [CYC-116] | > 30 µM (inactive)
